Values quoted from earlier work, collected in patent publication US20110118134A1, “Biomarkers for insulin sensitizer drug response” (IKFE GmbH, priority 2008, published 2011).

Tested on: MIF
Details: six week treatment, eight non-diabetic patients with obesity

CN(C)C(=N)N=C(N)N [metformin]
Plasma concentration of MIF and transcription of MIF mRNA in mononuclear cells: could be reduced
